Source: patent publication US10738028B2, “Spiro three-membered ring, spiro five-membered ring peptide deformylase inhibitor and use thereof in antibacteria and anti-tumor” (priority 2016, dated 2020)
Converted amounts (≈) assume the structure as drawn.

What was measured:
Type in all cases: cell-based
[1] = system: Escherichia coli (including ESBLs, non-ESBLs); test: MIC, two-fold agar dilution (CLSI), clinical isolates
Text: (§1) 1. The invention adopts the two-fold agar dilution method recommended by the operating procedure of antimicrobial susceptibility testing set by American Clinical and Laboratory Standards Institute (CLSI) to determine the Minimum Inhibitory Concentration (MIC) of the test samples against the tested strains.

[2] = system: methicillin-sensitive Staphylococcus epidermidis (MSSE); test: as above
Text: as §1

[3] = system: Enterococcus faecalis (EFA); test: as above
Text: as §1

[4] = system: Streptococcus pneoumoniae (SPN); test: as above
Text: as §1

[5] = system: Moraxella catarrhalis (BCA); test: as above
Text: as §1

[6] = system: Enterococcus faecium (EFM); test: as above
Text: as §1

[7] = system: methicillin-sensitive Staphylococcus aureus (MSSA); test: as above
Text: as §1

[8] = system: methicillin-resistant Staphylococcus epidermidis (MRSE); test: as above
Text: as §1

[9] = system: methicillin-resistant Staphylococcus aureus (MRSA); test: as above
Text: as §1

[10] = system: HCT-116 colorectal cancer cell line; test: CCK-8 proliferation inhibition; settings: Homo sapiens, HCT-116, 72 h, concentration of 30 μM; 72 hours; CCK-8; read-out: HCT116 inhibition rate/%
Method in brief: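 Cells seeded at 2000 cells/well, cultured overnight at 37 °C, 5% CO2, then exposed to compound (DMSO; control 1‰ DMSO) for 72 h in McCoy's 5A with 10% newborn bovine serum. Viability read with 1:10 diluted CCK-8.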

CCCC[C@H](CN(O)C=O)C(=O)N1CC2(CC2)C[C@H]1C(=O)Nc1nncs1 [Example 23, (S)-5-((R)-2-((N-hydroxyformamido)methyl)hexanoyl)-N-(1,3,4-thiadiazol-2-yl)-5-azaspiro[2.4]heptane-6-carboxamide]
MIC (anti-bacterial activity) ([1]; strain ECO+ 15-1): > 32 µg/mL
MIC (anti-bacterial activity) ([1]; strain ECO+ 15-2): > 32 µg/mL
MIC (anti-bacterial activity) ([1]; strain ECO+ 15-3): > 32 µg/mL
MIC (anti-bacterial activity) ([1]; strain ECO+ 15-4): > 32 µg/mL
MIC (anti-bacterial activity) ([1]; strain ECO− 15-1): > 32 µg/mL
MIC (anti-bacterial activity) ([1]; strain ECO− 15-2): > 32 µg/mL
MIC (anti-bacterial activity) ([1]; strain ECO− 15-3): > 32 µg/mL
MIC (anti-bacterial activity) ([1]; strain ECO− 15-4): > 32 µg/mL
MIC (anti-bacterial activity) ([2]; strain MSSE 15-3): 0.25 µg/mL (≈ 0.632 µM)
MIC (anti-bacterial activity) ([2]; strain MSSE 15-4): 0.25 µg/mL (≈ 0.632 µM)
MIC (anti-bacterial activity) ([2]; strain MSSE 15-5): 0.25 µg/mL (≈ 0.632 µM)
MIC (anti-bacterial activity) ([2]; strain MSSE 15-6): 0.25 µg/mL (≈ 0.632 µM)
MIC (anti-bacterial activity) ([3]; strain EFA 15-1): 32 µg/mL (≈ 80.9 µM)
MIC (anti-bacterial activity) ([3]; strain EFA 15-2): 32 µg/mL (≈ 80.9 µM)
MIC (anti-bacterial activity) ([3]; strain EFA 15-3): 1 µg/mL (≈ 2.53 µM)
MIC (anti-bacterial activity) ([3]; strain EFA 15-4): 32 µg/mL (≈ 80.9 µM)
MIC (anti-bacterial activity) ([3]; strain EFA 15-5): 32 µg/mL (≈ 80.9 µM)
MIC (anti-bacterial activity) ([3]; strain EFA 15-6): 32 µg/mL (≈ 80.9 µM)
MIC (anti-bacterial activity) ([3]; strain EFA 15-9): 32 µg/mL (≈ 80.9 µM)
MIC (anti-bacterial activity) ([4]; strain SPN 16-2): 15 µg/mL (≈ 37.9 µM)
MIC (anti-bacterial activity) ([4]; strain SPN 16-4): 1 µg/mL (≈ 2.53 µM)
MIC (anti-bacterial activity) ([5]; strain BCA 14-1): 8 µg/mL (≈ 20.2 µM)
MIC (anti-bacterial activity) ([5]; strain BCA 14-4): 4 µg/mL (≈ 10.1 µM)
MIC (anti-bacterial activity) ([5]; strain BCA 14-5): 1 µg/mL (≈ 2.53 µM)
MIC (anti-bacterial activity) ([5]; strain BCA 14-6): 4 µg/mL (≈ 10.1 µM)
MIC (anti-bacterial activity) ([5]; strain BCA 14-7): 2 µg/mL (≈ 5.06 µM)
MIC (anti-bacterial activity) ([5]; strain BCA 14-8): 2 µg/mL (≈ 5.06 µM)
MIC (anti-bacterial activity) ([5]; strain BCA 14-10): 1 µg/mL (≈ 2.53 µM)
MIC (anti-bacterial activity) ([6]; strain EFM 15-1): 1 µg/mL (≈ 2.53 µM)
MIC (anti-bacterial activity) ([6]; strain EFM 15-2): 8 µg/mL (≈ 20.2 µM)
MIC (anti-bacterial activity) ([6]; strain EFM 15-3): 0.5 µg/mL (≈ 1.26 µM)
MIC (anti-bacterial activity) ([6]; strain EFM 15-4): 8 µg/mL (≈ 20.2 µM)
MIC (anti-bacterial activity) ([6]; strain EFM 15-5): 0.5 µg/mL (≈ 1.26 µM)
MIC (anti-bacterial activity) ([6]; strain EFM 15-6): 8 µg/mL (≈ 20.2 µM)
MIC (anti-bacterial activity) ([7]; strain MSSA 15-3): 1 µg/mL (≈ 2.53 µM)
MIC (anti-bacterial activity) ([7]; strain MSSA 15-4): 1 µg/mL (≈ 2.53 µM)
MIC (anti-bacterial activity) ([7]; strain MSSA 15-5): 0.25 µg/mL (≈ 0.632 µM)
MIC (anti-bacterial activity) ([7]; strain MSSA 15-6): 0.25 µg/mL (≈ 0.632 µM)
MIC (anti-bacterial activity) ([8]; strain MRSE 15-1): 0.25 µg/mL (≈ 0.632 µM)
MIC (anti-bacterial activity) ([8]; strain MRSE 15-2): 0.25 µg/mL (≈ 0.632 µM)
MIC (anti-bacterial activity) ([8]; strain MRSE 15-3): 0.25 µg/mL (≈ 0.632 µM)
MIC (anti-bacterial activity) ([8]; strain MRSE 15-7): 1 µg/mL (≈ 2.53 µM)
MIC (anti-bacterial activity) ([9]; strain MRSA 15-1): 0.25 µg/mL (≈ 0.632 µM)
MIC (anti-bacterial activity) ([9]; strain MRSA 15-2): 2 µg/mL (≈ 5.06 µM)
MIC (anti-bacterial activity) ([9]; strain MRSA 15-3): 0.25 µg/mL (≈ 0.632 µM)
MIC (anti-bacterial activity) ([9]; strain MRSA 15-4): 2 µg/mL (≈ 5.06 µM)
inhibition at 30 µM [10]: 7%

CCCC[C@H](CN(O)C=O)C(=O)N1CC2(CC2)C[C@H]1c1nc2ccccc2n1CCN(C)C [Example 24]
MIC (anti-bacterial activity) ([1]; strain ECO+ 15-1): 8 µg/mL (≈ 17.6 µM)
MIC (anti-bacterial activity) ([1]; strain ECO+ 15-2): 16 µg/mL (≈ 35.1 µM)
MIC (anti-bacterial activity) ([1]; strain ECO+ 15-3): 16 µg/mL (≈ 35.1 µM)
MIC (anti-bacterial activity) ([1]; strain ECO+ 15-4): 16 µg/mL (≈ 35.1 µM)
MIC (anti-bacterial activity) ([1]; strain ECO− 15-1): 8 µg/mL (≈ 17.6 µM)
MIC (anti-bacterial activity) ([1]; strain ECO− 15-2): 16 µg/mL (≈ 35.1 µM)
MIC (anti-bacterial activity) ([1]; strain ECO− 15-3): 32 µg/mL (≈ 70.2 µM)
MIC (anti-bacterial activity) ([1]; strain ECO− 15-4): 16 µg/mL (≈ 35.1 µM)
MIC (anti-bacterial activity) ([2]; strain MSSE 15-3): 8 µg/mL (≈ 17.6 µM)
MIC (anti-bacterial activity) ([2]; strain MSSE 15-4): 2 µg/mL (≈ 4.39 µM)
MIC (anti-bacterial activity) ([2]; strain MSSE 15-5): 2 µg/mL (≈ 4.39 µM)
MIC (anti-bacterial activity) ([2]; strain MSSE 15-6): 2 µg/mL (≈ 4.39 µM)
MIC (anti-bacterial activity) ([3]; strain EFA 15-1): 32 µg/mL (≈ 70.2 µM)
MIC (anti-bacterial activity) ([3]; strain EFA 15-2): 32 µg/mL (≈ 70.2 µM)
MIC (anti-bacterial activity) ([3]; strain EFA 15-3): 8 µg/mL (≈ 17.6 µM)
MIC (anti-bacterial activity) ([3]; strain EFA 15-4): 32 µg/mL (≈ 70.2 µM)
MIC (anti-bacterial activity) ([3]; strain EFA 15-5): 32 µg/mL (≈ 70.2 µM)
MIC (anti-bacterial activity) ([3]; strain EFA 15-6): 32 µg/mL (≈ 70.2 µM)
MIC (anti-bacterial activity) ([3]; strain EFA 15-9): 32 µg/mL (≈ 70.2 µM)
MIC (anti-bacterial activity) ([4]; strain SPN 16-2): 4 µg/mL (≈ 8.78 µM)
MIC (anti-bacterial activity) ([4]; strain SPN 16-4): 1 µg/mL (≈ 2.19 µM)
MIC (anti-bacterial activity) ([5]; strain BCA 14-1): 32 µg/mL (≈ 70.2 µM)
MIC (anti-bacterial activity) ([5]; strain BCA 14-4): 16 µg/mL (≈ 35.1 µM)
MIC (anti-bacterial activity) ([5]; strain BCA 14-5): 8 µg/mL (≈ 17.6 µM)
MIC (anti-bacterial activity) ([5]; strain BCA 14-6): 32 µg/mL (≈ 70.2 µM)
MIC (anti-bacterial activity) ([5]; strain BCA 14-7): 8 µg/mL (≈ 17.6 µM)
MIC (anti-bacterial activity) ([5]; strain BCA 14-8): 8 µg/mL (≈ 17.6 µM)
MIC (anti-bacterial activity) ([5]; strain BCA 14-10): 8 µg/mL (≈ 17.6 µM)
MIC (anti-bacterial activity) ([6]; strain EFM 15-1): 4 µg/mL (≈ 8.78 µM)
MIC (anti-bacterial activity) ([6]; strain EFM 15-2): 8 µg/mL (≈ 17.6 µM)
MIC (anti-bacterial activity) ([6]; strain EFM 15-3): 2 µg/mL (≈ 4.39 µM)
MIC (anti-bacterial activity) ([6]; strain EFM 15-4): 8 µg/mL (≈ 17.6 µM)
MIC (anti-bacterial activity) ([6]; strain EFM 15-5): 4 µg/mL (≈ 8.78 µM)
MIC (anti-bacterial activity) ([6]; strain EFM 15-6): 8 µg/mL (≈ 17.6 µM)
MIC (anti-bacterial activity) ([7]; strain MSSA 15-3): 8 µg/mL (≈ 17.6 µM)
MIC (anti-bacterial activity) ([7]; strain MSSA 15-4): 8 µg/mL (≈ 17.6 µM)
MIC (anti-bacterial activity) ([7]; strain MSSA 15-5): 8 µg/mL (≈ 17.6 µM)
MIC (anti-bacterial activity) ([7]; strain MSSA 15-6): 8 µg/mL (≈ 17.6 µM)
MIC (anti-bacterial activity) ([8]; strain MRSE 15-1): 8 µg/mL (≈ 17.6 µM)
MIC (anti-bacterial activity) ([8]; strain MRSE 15-2): 8 µg/mL (≈ 17.6 µM)
MIC (anti-bacterial activity) ([8]; strain MRSE 15-3): 8 µg/mL (≈ 17.6 µM)
MIC (anti-bacterial activity) ([8]; strain MRSE 15-7): 8 µg/mL (≈ 17.6 µM)
MIC (anti-bacterial activity) ([9]; strain MRSA 15-1): 8 µg/mL (≈ 17.6 µM)
MIC (anti-bacterial activity) ([9]; strain MRSA 15-2): 32 µg/mL (≈ 70.2 µM)
MIC (anti-bacterial activity) ([9]; strain MRSA 15-3): 32 µg/mL (≈ 70.2 µM)
MIC (anti-bacterial activity) ([9]; strain MRSA 15-4): 8 µg/mL (≈ 17.6 µM)
inhibition at 30 µM [10]: 2%
